In patent US20050208058A1, “Compositions and methods for modulating cell division” (priority 2003, published 2005):
d = 2'-deoxy (DNA)

Key:
Assay type in all cases: cell-based, human
RPE cells [1] = assay: FACS of cells treated in tandem with two siRNAs (p53 dependence); details: tandem treatment sip53 then siGCP2; FIG. 6A
Description: For flow cytometry (i.e., fluorescence-activated cell sorter or FACS) experiments, siRNAs were delivered to cells as described above, and were incubated for 50-70 hours. To synchronize cells, nocodazole was added to the cells to a concentration of 5 μg/mL for 12 hours. Cells were stained with propidium iodide and analyzed by flow cytometry (FACSCAN; Becton Dickinson) using FLOJO® software (Tree Star, Inc., Ashland, Oreg.).
(§1) A number of experiments were conducted to determine if p53 is required for the cell cycle arrest phenotype described herein. FACS analysis of tandem siRNA-treated cells was performed as described in Example 2. BrDU and DAPI imaging was performed as described in Example 2. Intracellular p53 was visualized using anti-p53 antibody that is specific for activated p53 (i.e., p53 phosphorylated at Serine 33) (“α-Pser33-p53” provided by Yoichi Taya and described in Kishis et al., J. Biol. Chem., 276:39115-3922, 2001)
In FIG. 6A each line tracing represents FACS data from cells treated in tandem with the siRNAs directed to the gene products indicated above the line. Cells were first treated with siRNA directed to the gene product to the left of the slash. Up to 24 hours later, siRNA directed to the gene product to the right of the slash was added. […] 12 hours before collecting the cells, nocodazole was added to the cells analyzed in the bottom three line tracings. […]

RPE cells [2] = assay: BrDU staining of cells treated in tandem with two siRNAs (p53 dependence); details: FIG. 6B
Description: (§2) To further study the effects of silencing centrosomal genes, the following cell cycle experiments were performed using RPE cells. In immunofluorescence experiments, cells were delivered by OLIGOFECTAMINE in a media solution containing between 1-100 nanomolar concentration of siRNAs. After 4 hours of incubation with lipofectamine, cells were washed, and cell cycle progression was assayed by (i) treating cells with 5-Bromo-2′-deoxyuridine (BrDU from Sigma, St Louis, Mo.) for 24 hours and staining for BrDU or (ii) staining cells with antibody to Ki-67 (BD Biosciences) according to manufacturer's instructions. BrDU treatment and staining were performed as follows: after 50-70 hours incubation with siRNA, BrDU was added to cells at a final concentration of 5 μg/ml. Cells were fixed in −20° C. methanol and then treated with 2N HCL at 22° C. for 30 minutes, incubated with 1:500 mouse anti-BrdU antibody (Becton Dickinson, Palo Alto, Calif.), and labeled with 1:1,000 goat FITC-mouse antibody (Molecular Probes, Inc.). Cells were also treated with 4′,6-diamidino-2-phenylindole (DAPI) (Molecular Probes) according to the manufacturer's instructions. Cells were prepared, imaged, and the resulting images were deconvolved as described in Example 1.
as §1

p53 = assay: Western blot of p53 in cytoplasmic and nuclear fractions; details: relative to mock or silamin transfected cells; FIG. 6D
Excerpt: The Western blot shown cytoplasmic (cyt), and nuclear (nuc) cell fractions blotted with an antibody to p53 (from Callbiochem, San Diego, Calif.). Nuclear fractions were blotted with an antibody for H1 as a control for loading.

RPE cells [3] = assay: BrDU incorporation after siRNA treatment and nocodazole synchronization; details: relative to control cells (siRNA to lamin), after nocodazole release; FIG. 2A
Description: as §2
Upon release from nocodazole treatment, proliferating cells typically resume cell cycle progression. Chromosomal DNA in the cells was imaged using DAPI (faint ghost-like staining) and/or BrDU (brighter staining). Although DAPI can be used to visualize DNA at any stage of the cell cycle, BrDU is only incorporated into newly synthesized DNA only during S-phase. Thus, BrDU incorporation can be used as a marker of cells that progress through at least one S-phase of the cell cycle. Control cells in this experiment were treated with siRNA to lamin.

CDK2 = CDK2 kinase assay from siRNA-treated cells; details: after sustained siRNA treatment, vs siRNA to laminin; FIG. 2C
Description: Kinase assays were done on RPE cells treated with siRNAs as described above. Treated cells were lysed in 1% NP-40 lysis buffer (NP-40 buffer: 20 mM NaPO4 pH 7.4, 1% NP-40, 250 mM NaCl, 5 mM ethylenediaminetetraacetic acid (EDTA), 5 mM dithiothreitol (DTT), 1 mM phenylmethylsulfonyl fluoride, 2 μg/ml leupeptin, and 1.5 μg/ml aprotinin) supplemented with 25 mM-glycerophosphate. For measurement of CDK2-associated activity in vitro, the complexes were immunoprecipitated for 2 hours at 4° C. using anti-cylin A antibody (Santa Cruz Biotechnology). Immunocomplexes were bound to protein A-Sepharose beads for an additional hour at 4° C. and washed four times with lysis buffer followed by one wash with the kinase buffer (20 mM Tris-HCl pH 7.5, 50 mM KCl, 7.5 mM MgCl 2, 1 mM DTT, 25 mM-glycerophosphate, 1 mM phenylmethylsulfonyl fluoride, 2 μg/ml leupeptin, and 1.5 μg/ml aprotinin). […] Phosphorylated proteins were analyzed on 10% SDS-polyacrylamide gels followed by autoradiography and quantified by phosphorimaging (Molecular Imager GS-250; Bio-Rad, Hercules, Calif.).
FIG. 2C is a graph quantifying the results of CDK2 kinase assays from cells treated with siRNA directed to laminin or pericentrin B. CDK2 activity is required for proliferating cells through to progress through the G1 stage of the cell cycle.

## GGACAAGGGUUGGGCUGGG (siRNA; RNA, 3' dTdT, backbone not given here) [sip53, siRNA directed to p53, reference compound]
RPE cells [1]
  effect of pre-treatment on siGCP2-mediated block of the nocodazole shift: inhibited the siGCP-mediated block of the nocodazole shift
RPE cells [2]; sip53 pretreatment, 6C
  effect of pretreatment on number of cells that divided after sipericentrin or siGCP2: increased the number of cells that divided
p53
  nuclear p53 (Western blot): nuclear p53 is activated

## UUGGAACAGCUGCAGCAGA (siRNA; RNA, 3' dTdT, backbone not given here) [pericentrin B, siRNA directed only to pericentrin B (Kendrin)]
RPE cells [3]
  incorporation of BrDU into chromosomal material: clearly inhibited incorporation of BrDU
CDK2
  CDK2 expression and/or activity: greatly diminished
RPE cells [2]; tandem treatment silaminin then indicated siRNA, vs silamin/silamin
  cells incorporating BrDU: substantially fewer
